Positions count from the first letter of the chain named. Entries after “also recorded” stand apart in the source; their conditions may differ. Values belong to the compound of their own block, whether it stands above or below them.
Assays:
[1] = target: T1, Wild-type ABL 0P (unphosphorylated) kinase domain (Homo sapiens, UniProt P00519); assay: ATP site-dependent displacement assay, indolinone probe of 3.2; type: binding
T1 construct: ABL kinase domain (corresponding to residues 229-512); GST (N, cleaved yes); PreScission cleavage site (N, cleaved yes); made in house; host or cells: High5 insect cells (baculovirus)
T1 sequence (P00519 229-512): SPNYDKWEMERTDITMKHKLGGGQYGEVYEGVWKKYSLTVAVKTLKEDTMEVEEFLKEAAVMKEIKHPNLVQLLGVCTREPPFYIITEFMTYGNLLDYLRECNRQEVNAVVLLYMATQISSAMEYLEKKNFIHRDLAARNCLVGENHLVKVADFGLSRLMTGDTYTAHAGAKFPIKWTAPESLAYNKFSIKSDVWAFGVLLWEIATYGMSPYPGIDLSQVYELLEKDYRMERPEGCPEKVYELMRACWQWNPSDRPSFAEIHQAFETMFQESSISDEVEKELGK
Source text: (§1) KD values, are the average of three independent experiments.

[2] = target: T2, T315I ABL mutant kinase domain (Homo sapiens, UniProt P00519, T315I); assay: as above; type: binding
T2 construct: ABL kinase domain (corresponding to residues 229-512); GST (N, cleaved yes); PreScission cleavage site (N, cleaved yes); made in house; host or cells: High5 insect cells (baculovirus)
T2 sequence (P00519 229-512 T315I): T1 sequence (P00519 229-512) with T87I
Source text: as §1

[3] = target: T3, wild-type ABL kinase domain (Homo sapiens, UniProt P00519); assay: as above; type: binding
T3 construct: ABL kinase domain (corresponding to residues 229-512); GST (N, cleaved yes); PreScission cleavage site (N, cleaved yes); made in house; host or cells: High5 insect cells (baculovirus)
T3 sequence (P00519 229-512): T1 sequence (P00519 229-512)
Source text: as §1

[4] = target: T1, Wild-type ABL 0P (unphosphorylated) kinase domain; assay: ATP site-dependent displacement assay, indolinone probe of 3.1; type: binding
Source text: as §1

[5] = target: T2, T315I ABL mutant kinase domain; assay: as above; type: binding
Source text: as §1

[6] = target: T3, wild-type ABL kinase domain; assay: as above; type: binding
Source text: as §1

[7] = target: T1, Wild-type ABL 0P (unphosphorylated) kinase domain; assay: Indolinone probe titration (fluorescence), probe of 3.1; type: binding; conditions: Table 1; 10 nM enzyme, probe 3 μM to 0
Procedure: (§2) Data analysis was performed using the Dynafit software.

[8] = target: T2, T315I ABL mutant kinase domain; assay: as above; type: binding; conditions: Table 1; 10 nM enzyme, probe 3 μM to 0
Procedure: as §2

[9] = target: T3, wild-type ABL kinase domain; assay: as above; type: binding; conditions: Table 1; 10 nM enzyme, probe 3 μM to 0
Procedure: as §2

[10] = target: T1, Wild-type ABL 0P (unphosphorylated) kinase domain; assay: Indolinone probe titration (fluorescence), probe of 3.2; type: binding; conditions: Table 4
Procedure: (§3) The titration experiment was performed as follows: 10 nM ABL kinase domains (wild-type or T315I mutant), indolinone concentration from 3 μM to 0, with dilution steps 1:1.5 in 50 mM TrisHCl, pH 7.5, 150 mM NaCl, 5 mM MgCl2, 1 mM MnCl2, 1 mM DTT, 1% DMSO, 3 μM NaaVO4(buffer 1).

[11] = target: T2, T315I ABL mutant kinase domain; assay: as above; type: binding; conditions: Table 4
Procedure: as §3

[12] = target: T3, wild-type ABL kinase domain; assay: as above; type: binding; conditions: Table 4
Procedure: as §3

[13] = target: T4, T315I ABL mutant in HCT-116 transfected cells (Homo sapiens, UniProt P00519, T315I); assay: Immunoblotting of transfected HCT-116 cells (pY412-ABL); type: cell-based; conditions: 5 μM, HCT-116 transfected with T315I mutant construct, FIG. 3
T4 construct: ABL cDNA (corresponding to residues 27-1130); expressed in transfected cells; host or cells: HCT-116
Procedure: (§4) Amplification was performed using the forward oligonucleotide:
Oligonucleotide used in the mutagenesis reaction was:
(§5) Immunoblotting was performed according to standard methods.

[14] = target: T5, wild-type ABL in HCT-116 transfected cells (Homo sapiens, UniProt P00519); assay: as above; type: cell-based; conditions: 5 μM, HCT-116 transfected with wild-type construct, FIG. 3
T5 construct: ABL cDNA (corresponding to residues 27-1130); expressed in transfected cells; host or cells: HCT-116
Procedure: as §4, §5

[15] = target: T6, BCR-ABL in K-562 leukemia cells (Homo sapiens, UniProt P00519); assay: Immunoblotting of K-562 leukemia cells, inhibition of BCR-ABL signaling; type: cell-based; conditions: K-562 cells treated for one hour
T6 construct: endogenously expressing BCR-ABL cells; endogenous in cells; host or cells: K-562; the other entry of the earlier key: BCR (P11274, Breakpoint cluster region protein)

[16] = Table 5, probe 3.2, 3 μM highest inhibitor concentration, average of three experiments
[17] = Tables 5 and 6, probe 3.2, 3 μM highest inhibitor concentration, average of three experiments
[18] = Table 2, probe 3.1, 3 μM highest inhibitor concentration
[19] = Tables 2 and 3, probe 3.1, 3 μM highest inhibitor concentration

Kd [1, 16]: 350 ± 50 nM | Kd [2, 17]: 70 ± 22 nM | Kd [3, 16]: 553 ± 136 nM | Kd [4, 18]: 330 ± 150 nM | Kd [5, 19]: 47 ± 15 nM | Kd [6, 18]: 370 ± 160 nM
Structure (SMILES): CC(C)(NC(=O)c1cc2c(NC(=O)c3ccc(CN4CCOCC4)cc3)n[nH]c2s1)c1ccccc1F [Compound 3, 3-(4-Morpholin-4-ylmethyl-benzoylamino)-1H-thieno[2,3-c]pyrazole-5-carboxylic acid [1-(2-fluoro-phenyl)-1-methyl-ethyl]-amide]

Kd [2, 17]: 8.3 ± 1.5 nM | Kd [5, 19]: 12 ± 6 nM
Structure (SMILES): CN1CCN(c2ccc(C(=O)Nc3n[nH]c4sc(C(=O)NC(C)(C)c5ccccc5F)cc34)cc2)CC1 [Compound 8, 3-[4-(4-Methyl-piperazin-1-yl)-benzoylamino)-1H-thieno[2,3-c]pyrazole-5-carboxylic acid [1-(2-fluoro-phenyl)-1-methyl-ethyl]-amide]

Kd [2, 17]: 18 ± 3.4 nM | Kd [5, 19]: 14 ± 3.5 nM
Structure (SMILES): CC(C)(NC(=O)c1cc2c(NC(=O)c3ccc(CN4CCCCC4)cc3)n[nH]c2s1)c1ccccc1Cl [Compound 9, 3-(4-Piperidin-1-ylmethyl-benzoylamino)-1H-thieno[2,3-c]pyrazole-5-carboxylic acid [1-(2-chloro-phenyl)-1-methyl-ethyl]-amide]

Kd [2, 17]: 5.3 ± 4 nM | Kd [5, 19]: 4.1 ± 2 nM
Structure (SMILES): CN1CCN(c2ccc(C(=O)Nc3n[nH]c4sc(C(=O)NC(C)(C)c5ccccc5)cc34)cc2)CC1 [Compound 5, 3-[4-(4-Methyl-piperazin-1-yl)-benzoylamino]-1H-thieno[2,3-c]pyrazole-5-carboxylic acid (1-methyl-1-phenyl-ethyl)-amide]

Kd [7]: 50 ± 30 nM | Kd [8]: 140 ± 70 nM | Kd [9]: 40 ± 20 nM
Structure (SMILES): CCN(CC)CCNC(=O)c1c(C)[nH]c(/C=C2\C(=O)Nc3ccc(S(=O)(=O)Cc4ccccc4)cc32)c1C [2,4-dimethyl-5-[2-oxo-5-phenylmethanesulfonyl-1,2-dihydro-indol-(3Z)-ylidenemethyl]-1H-pyrrole-3-carboxylic acid (2-diethylamino-ethyl)-amide]

Kd [2, 17]: 2.7 ± 1 nM | Kd [5, 19]: 6 ± 3 nM
Structure (SMILES): CN1CCC(Oc2ccc(C(=O)Nc3n[nH]c4sc(C(=O)NC(C)(C)c5ccccc5)cc34)cc2)CC1 [Compound 4, 3-[4-(1-Methyl-piperidin-4-yloxy)-benzoylamino]-1H-thieno[2,3-c]pyrazole-5-carboxylic acid (1-methyl-1-phenyl-ethyl)-amide]

Kd [2, 17]: 17.4 ± 6 nM | Kd [5, 19]: 14 ± 5 nM
Structure (SMILES): CC(C)(NC(=O)c1cc2c(NC(=O)c3ccc(CN4CCCCC4)cc3)n[nH]c2s1)c1ccc(F)cc1 [Compound 6, 3-(4-Piperidin-1-ylmethyl-benzoylamino)-1H-thieno[2,3-c]pyrazole-5-carboxylic acid [1-(4-fluoro-phenyl)-1-methyl-ethyl]-amide]

Kd ([1]; Table 4 validation, probe 3.2 at 2 μM): 6600 ± 1600 nM | Kd ([2]; Table 4 validation, probe 3.2 at 0.2 μM): 2610 ± 900 nM | Kd ([3]; Table 4 validation, probe 3.2 at 3.3 μM): 4800 ± 1000 nM | Kd ([4]; Table 1 validation, probe 3.1 at 0.15 μM, highest conc. ATPγS 250 μM, Imatinib 10 μM, average of three experiments): 9500 ± 3400 nM | Kd ([5]; Table 1 validation, probe 3.1 at 0.42 μM, highest conc. ATPγS 250 μM, Imatinib 10 μM, average of three experiments): 2000 ± 210 nM | Kd ([6]; Table 1 validation, probe 3.1 at 0.12 μM, highest conc. ATPγS 250 μM, Imatinib 10 μM, average of three experiments): 9000 ± 1900 nM
Structure (SMILES): Nc1ncnc2c1ncn2[C@@H]1O[C@H](COP(=O)(O)OP(=O)(O)OP(O)(O)=S)[C@@H](O)[C@H]1O [ATPγS, reference compound]

Kd [2, 17]: 6.3 ± 3.3 nM | Kd [5, 19]: 10 ± 4.6 nM
Structure (SMILES): CC(C)(NC(=O)c1cc2c(NC(=O)c3ccc(CN4CCCCC4)cc3)n[nH]c2s1)c1cccc(F)c1 [Compound 13, 3-(4-Piperidin-1-ylmethyl-benzoylamino)-1H-thieno[2,3-c]pyrazole-5-carboxylic acid [1-(3-fluoro-phenyl)-1-methyl-ethyl]-amide]

Kd [2, 17]: 16.8 ± 3 nM | Kd [5, 19]: 20 ± 2 nM
Structure (SMILES): CC(C)NCc1ccc(C(=O)Nc2n[nH]c3sc(C(=O)NC(C)(C)c4ccccc4F)cc23)cc1 [Compound 7]

Kd [1, 16]: 107 ± 21 nM | Kd [2, 17]: 15 ± 4 nM | Kd [3, 16]: 177 ± 32 nM | Kd [4, 18]: 107 ± 21 nM | Kd [5, 19]: 15 ± 4 nM | Kd [6, 18]: 177 ± 32 nM
Structure (SMILES): CC(C)(NC(=O)c1cc2c(NC(=O)c3ccc(CN4CCCCC4)cc3)n[nH]c2s1)c1ccccc1F [Compound 2, 3-(4-Piperidin-1-ylmethyl-benzoylamino)-1H-thieno[2,3-c]pyrazole-5-carboxylic acid [1-(2-fluoro-phenyl)-1-methyl-ethyl]-amide]

Kd [10]: 200 ± 100 nM | Kd [11]: 20 ± 8 nM | Kd [12]: 330 ± 120 nM
Structure (SMILES): CCN(CC)CCNC(=O)c1c(C)[nH]c(/C=C2\C(=O)Nc3ccc(S(=O)(=O)NC)cc32)c1-c1ccc(F)cc1F [N-[2-(diethylamino)ethyl]-4-(2,4-difluorophenyl)-2-methyl-5-((Z)-{5-[(methylamino)sulfonyl]-2-oxo-1,2-dihydro-3H-indol-3-ylidene}methyl)-1H-pyrrole-3-carboxamide]

Kd [2, 17]: 11 ± 2.6 nM | Kd [5, 19]: 12 ± 2.5 nM
Structure (SMILES): CC(C)NCc1ccc(C(=O)Nc2n[nH]c3sc(C(=O)NC(C)(C)c4ccccc4)cc23)cc1 [Compound 11, 3-[4-(Isopropylamino-methyl)benzoylamino)-1H-thieno[2,3-c]pyrazole-5-carboxylic acid (1-methyl-1-phenyl-ethyl)-amide]

Kd [2, 17]: 11.7 ± 3.8 nM | Kd [5, 19]: 16 ± 3.7 nM
Structure (SMILES): CC(C)(NC(=O)c1cc2c(NC(=O)c3ccc(N4CCOCC4)cc3)n[nH]c2s1)c1ccccc1 [Compound 12, 3-(4-Morpholin-4-yl-benzoylamino)-1H-thieno[2,3-c]pyrazole-5-carboxylic acid (1-methyl-1-phenyl-ethyl)-amide]

Kd [2, 17]: 9.3 ± 2.5 nM | Kd [5, 19]: 8.4 ± 4 nM
Structure (SMILES): CN1CCN(Cc2ccc(C(=O)Nc3n[nH]c4sc(C(=O)NC(C)(C)c5ccccc5)cc34)cc2)CC1 [Compound 10, 3-[4-(4-Methyl-piperazin-1-ylmethyl)-benzoylamino]-1H-thieno[2,3-c]pyrazole-5-carboxylic acid (1-methyl-1-phenyl-ethyl)-amide]

Kd [1, 16]: 278 ± 122 nM | Kd [2, 17]: 37 ± 13 nM | Kd [3, 16]: 310 ± 26 nM | effect on Src [15]: no effect on Src | inhibition of ABL auto-phosphorylation of Y412 ([15]; FIG. 2): inhibit phosphorylation of Y412 | inhibition of phosphorylation of downstream mediators Stat-5 and Crkl ([15]; FIG. 2): inhibit | Kd [4, 18]: 240 ± 30 nM | Kd [5, 19]: 21 ± 6 nM | Kd [6, 18]: 250 ± 75 nM
Structure (SMILES): CC(C)(NC(=O)c1cc2c(NC(=O)c3ccc(CN4CCCCC4)cc3)n[nH]c2s1)c1ccccc1 [Compound 1, 3-(4-Piperidin-1-ylmethyl-benzoylamino)-1H-thieno[2,3-c]pyrazole-5-carboxylic acid (1-methyl-1-phenyl-ethyl)-amide]
inhibitory activity on ABL (pY412-ABL immunoblot) [13]: capable of inhibiting; also recorded: strong inhibitory activity | inhibitory activity on ABL (pY412-ABL immunoblot) [14]: capable of inhibiting; also recorded: strong inhibitory activity

Source: patent US7803829B2, “Use of a kinase inhibitor for the treatment of particular resistant tumors” (Nerviano Medical Sciences S.r.l., priority 2006, dated 2010)
